Reference: the NIST ThermoML archive (doi:10.1016/j.jct.2018.08.013)
Where “and” joins values, the source holds several entries; their conditions need not be identical. Identical values can stand only once.

What was measured:
[1] = xn = mol fraction of the nth substance listed; settings: 298 K; 100 kPa; Crystal of intercomponent compound 1; X-ray diffraction; x2 = 0.477
[2] = specific heat capacity at constant pressure; xn = mol fraction of the nth substance listed; settings: 100 kPa, Crystal of intercomponent compound 1, relaxation calorimetry, x2 = 0.477

[Se] [selenium] + [In]
Settings | mass density [kg/m3]
[1] | 5546

[2]
Settings | specific heat capacity
10.11 K | 10.21 J/K/kg and 10.22 J/K/kg and 10.23 J/K/kg
12.12 K | 16.85 J/K/kg and 16.83 J/K/kg
12.14 K | 16.97 J/K/kg
14.13 K | 24.44 J/K/kg
14.15 K | 24.49 J/K/kg
16.15 K | 32.56 J/K/kg and 32.49 J/K/kg
16.16 K | 32.62 J/K/kg
18.17 K | 40.89 J/K/kg and 40.88 J/K/kg
18.18 K | 40.87 J/K/kg
20.18 K | 49.24 J/K/kg
20.19 K | 49.1 J/K/kg and 49.16 J/K/kg
22.2 K | 57.18 J/K/kg and 57.13 J/K/kg
22.21 K | 56.97 J/K/kg
24.22 K | 65.02 J/K/kg and 64.97 J/K/kg
24.23 K | 64.87 J/K/kg
26.24 K | 72.45 J/K/kg and 72.56 J/K/kg
28.25 K | 79.57 J/K/kg
30.27 K | 86.33 J/K/kg and 86.39 J/K/kg
32.78 K | 94.54 J/K/kg
32.79 K | 94.59 J/K/kg
35.31 K | 102.49 J/K/kg and 102.64 J/K/kg
37.81 K | 109.66 J/K/kg
37.82 K | 109.87 J/K/kg
40.34 K | 117.25 J/K/kg
40.35 K | 116.73 J/K/kg and 116.68 J/K/kg
42.86 K | 123.23 J/K/kg
42.87 K | 122.77 J/K/kg
45.38 K | 129.63 J/K/kg
45.39 K | 129.32 J/K/kg
45.4 K | 129.27 J/K/kg
47.9 K | 135.36 J/K/kg
47.91 K | 134.84 J/K/kg
50.41 K | 141.5 J/K/kg
50.42 K | 140.88 J/K/kg
50.44 K | 140.73 J/K/kg
52.93 K | 146.09 J/K/kg
52.95 K | 145.42 J/K/kg
55.43 K | 151.41 J/K/kg
55.46 K | 150.74 J/K/kg
55.48 K | 150.63 J/K/kg
57.97 K | 155.28 J/K/kg
57.99 K | 154.81 J/K/kg
60.46 K | 160.13 J/K/kg
60.49 K | 159.41 J/K/kg
60.52 K | 159.25 J/K/kg
63.01 K | 163.79 J/K/kg
63.04 K | 162.97 J/K/kg
65.49 K | 168.85 J/K/kg
65.53 K | 167.77 J/K/kg
65.57 K | 167.3 J/K/kg
68.05 K | 171.53 J/K/kg
68.08 K | 170.97 J/K/kg
70.52 K | 176.23 J/K/kg
70.56 K | 175.25 J/K/kg
70.63 K | 173.96 J/K/kg
73.05 K | 178.14 J/K/kg
73.09 K | 177.31 J/K/kg
75.56 K | 182.68 J/K/kg
75.6 K | 181.49 J/K/kg
75.67 K | 180.82 J/K/kg
78.13 K | 184.75 J/K/kg
78.16 K | 183.82 J/K/kg
80.57 K | 189.39 J/K/kg
80.65 K | 187.95 J/K/kg
80.71 K | 187.02 J/K/kg
83.17 K | 190.47 J/K/kg
83.2 K | 189.7 J/K/kg
85.61 K | 194.76 J/K/kg
85.69 K | 193.42 J/K/kg
85.74 K | 192.69 J/K/kg
88.19 K | 195.84 J/K/kg
88.24 K | 194.76 J/K/kg
90.63 K | 200.23 J/K/kg
90.71 K | 198.78 J/K/kg
90.78 K | 197.54 J/K/kg
93.18 K | 200.64 J/K/kg
93.24 K | 199.45 J/K/kg
95.65 K | 204.05 J/K/kg
95.74 K | 202.39 J/K/kg
95.83 K | 201.41 J/K/kg
98.2 K | 204.15 J/K/kg
98.3 K | 202.34 J/K/kg
100.79 K | 205.8 J/K/kg
100.83 K | 205.34 J/K/kg
100.91 K | 207.4 J/K/kg
101.79 K | 206.37 J/K/kg
101.88 K | 205.18 J/K/kg
105.84 K | 208.74 J/K/kg
105.86 K | 208.07 J/K/kg
109.83 K | 211.27 J/K/kg
109.93 K | 209.1 J/K/kg
113.88 K | 213.59 J/K/kg
113.93 K | 212.1 J/K/kg
